Experiment [1] relates to Mus musculus. Description: Antagonism of delta2 opioid agonist (deltorphin II)-induced antinociception upon intrathecal administration in mice at a dose of 250 pmol. The format is functional.
In experiment [2] the test system is Mus musculus. Put plainly: Antagonism of delta1 opioid agonist (DPDPE)-induced antinociception upon intrathecal administration in mice at a dose of 250 pmol. The experiment is classed as functional.
The test system of experiment [3] is Mus musculus. Put plainly: Antagonism of kappa2 opioid agonist (bremazocine)-induced antinociception upon intrathecal administration in mice at a dose of 250 pmol. The format is functional.
Experiment [4] concerns Mus musculus. Put plainly: Antagonism of kappa1 opioid agonist (U-50,488)-induced antinociception upon intrathecal administration in mice at a dose of 250 pmol. The format is functional.
Experiment [5] relates to Mus musculus. Description: Antagonism of kappa2 opioid agonist (bremazocine)-induced antinociception upon intrathecal administration in mice at a dose of 30 pmol. The experiment is classed as functional.
Experiment [6] concerns the target T1, Opioid receptor (Mus musculus, UniProt P42866+P32300+P33534). Description: Compound was tested for binding affinity on intact HEK cells using [3H]diprenorphine as radioligand singly expressed with delta or kappa receptors. The format is cell-based. To be noted: hek293.
Experiment [7] concerns the target T1, Opioid receptor. Description: Compound was tested for binding affinity on intact HEK cells using [3H]diprenorphine as radioligand co-expressed with delta and kappa opioid receptors. The format is cell-based. Conditions: hek293.
For experiment [8], the system named is Mus musculus. Put plainly: Antagonism of delta1 opioid agonist (DPDPE)-induced antinociception upon intrathecal administration in mice at a dose of 30 pmol. The format is functional.
For experiment [9], the system named is Mus musculus. Description: Antagonism of delta2 opioid agonist (deltorphin II)-induced antinociception upon intrathecal administration in mice at a dose of 30 pmol. The experiment is classed as functional.
In experiment [10] the test system is Mus musculus. Description: Antagonism of kappa1 opioid agonist (U-50,488)-induced antinociception upon intrathecal administration in mice at a dose of 30 pmol. The format is functional.
Experiment [11] concerns Mus musculus. Put plainly: Antagonism of delta1 opioid agonist (DPDPE)-induced antinociception upon intrathecal administration in mice at a dose of 2.5 pmol. The format is functional.
Experiment [12] concerns Mus musculus. Description: Antagonism of delta2 opioid agonist (deltorphin II)-induced antinociception upon intrathecal administration in mice at a dose of 2.5 pmol. The format is functional.
Experiment [13] relates to Mus musculus. Put plainly: Antagonism of kappa2 opioid agonist (bremazocine)-induced antinociception upon intrathecal administration in mice at a dose of 2.5 pmol. The experiment is classed as functional.
In experiment [14] the test system is Mus musculus. Description: Antagonism of delta2 opioid agonist (deltorphin II)-induced antinociception upon intrathecal administration in mice at a dose of 25 pmol. The format is functional.
The subject of experiment [15] is Mus musculus. Description: Antagonism of kappa2 opioid agonist (bremazocine)-induced antinociception upon intrathecal administration in mice at a dose of 25 pmol. The experiment is classed as functional.
In experiment [16] the test system is Mus musculus. Description: Antagonism of delta1 opioid agonist (DPDPE)-induced antinociception upon intrathecal administration in mice at a dose of 25 pmol. The experiment is classed as functional.
The test system of experiment [17] is Mus musculus. Description: Antagonism of kappa1 opioid agonist (U-50,488)-induced antinociception upon intrathecal administration in mice at a dose of 25 pmol. The format is functional.
The target of experiment [18] is T1, Opioid receptor. Put plainly: Compound was tested for binding affinity on intact HEK cells using [3H]diprenorphine as radioligand singly expressed with delta or kappa receptor. The format is cell-based, Homo sapiens. Conditions: hek293.
For experiment [19], the target named is T1, Opioid receptor. Description: Compound was tested for binding affinity on intact HEK cells using [3H]diprenorphine as radioligand co-expressed with delta and kappa opioid receptor. The format is cell-based. To be noted: hek293.
Experiment [20] has as its system Mus musculus. Description: Antagonism of kappa2 opioid agonist (bremazocine)-induced antinociception upon intrathecal administration in mice at a dose of 50 pmol. The format is functional.
Experiment [21] has as its system Mus musculus. Description: Antagonism of delta1 opioid agonist (DPDPE)-induced antinociception upon intrathecal administration in mice at a dose of 50 pmol. The experiment is classed as functional.
Experiment [22] relates to Mus musculus. Description: Antagonism of delta2 opioid agonist (deltorphin II)-induced antinociception upon intrathecal administration in mice at a dose of 50 pmol. The experiment is classed as functional.
For experiment [23], the system named is Mus musculus. Put plainly: Antagonism of kappa1 opioid agonist (U-50,488)-induced antinociception upon intrathecal administration in mice at a dose of 50 pmol. The format is functional.
For experiment [24], the system named is Mus musculus. Put plainly: Antagonism of delta2 opioid agonist (deltorphin II)-induced antinociception upon intrathecal administration in mice at a dose of 1.0 pmol. The experiment is classed as functional.
Experiment [25] has as its system Mus musculus. Description: Antagonism of delta1 opioid agonist (DPDPE)-induced antinociception upon intrathecal administration in mice at a dose of 1.0 pmol. The experiment is classed as functional.
Experiment [26] has as its system Mus musculus. Put plainly: Antagonism of kappa2 opioid agonist (bremazocine)-induced antinociception upon intrathecal administration in mice at a dose of 1.0 pmol. The format is functional.
Experiment [27] relates to Mus musculus. Description: Antagonism of kappa1 opioid agonist (U-50,488)-induced antinociception upon intrathecal administration in mice at a dose of 2.5 pmol. The format is functional.

The structures appear in SMILES notation. Bounds are passed on as bounds.

We go through ten molecules from ChEMBL document CHEMBL1138828, “A bivalent ligand (KDN-21) reveals spinal delta and kappa opioid receptors are organized as heterodimers that give rise to delta(1) and kappa(2) phenotypes. Selective targeting of delta-kappa heterodimers” (J Med Chem, 2004).

As for `Oc1ccc2c3c1O[C@H]1c4[nH]c5c(c4C[C@@]4(O)[C@@H](C2)N(CC2CC2)CC[C@]314)C[C@@]1(O)[C@H]2Cc3ccc(O)c4c3[C@@]1(CCN2CC1CC1)[C@H]5O4` [NORBINALTORPHIMINE], the ED50 in the experiment with Mus musculus [1] worked out at 1 nM mouse-1; in the experiment with Mus musculus [2] it was 12.4 nM mouse-1; with Mus musculus [3], 129.5 nM mouse-1; in the experiment with Mus musculus [4], 5.3 nM mouse-1.

Turning to `N/C(=N\CCCNC(=O)CNC(=O)CNC(=O)CCC(=O)NCC(=O)NCC(=O)Nc1cccc2c3c([nH]c12)[C@@H]1Oc2c(O)ccc4c2C12CCN(CC1CC1)C(C4)[C@]2(O)C3)Nc1ccc2[nH]c3c(c2c1)C[C@@]1(O)C2Cc4ccc(O)c5c4C1(CCN2CC1CC1)[C@H]3O5` (some centres undefined), the ED50 is recorded as 50.4 nM mouse-1 with Mus musculus [5], 8 nM mouse-1 in the experiment on Mus musculus [8], 1.2 nM mouse-1 in the experiment on Mus musculus [9] and 1.9 nM mouse-1 in the experiment on Mus musculus [10]. For the same molecule, the Ki at Opioid receptor [6] was 63 nM; at Opioid receptor [7], 0.3 nM.

Take `NC(=NCCNC(=O)CNC(=O)CNC(=O)CCC(=O)NCC(=O)NCC(=O)Nc1cccc2c3c([nH]c12)[C@@H]1Oc2c(O)ccc4c2C12CCN(CC1CC1)C(C4)[C@]2(O)C3)Nc1ccc2[nH]c3c(c2c1)C[C@@]1(O)C2Cc4ccc(O)c5c4C1(CCN2CC1CC1)[C@H]3O5` (some centres undefined): the ED50 in the experiment on Mus musculus [11] amounted to 3.4 nM mouse-1; in the experiment with Mus musculus [12] it was 1.1 nM mouse-1; with Mus musculus [13], 1.7 nM mouse-1. Further, the Ki at Opioid receptor [6] worked out at 58.8 nM; at Opioid receptor [7] it was 0.5 nM.

With `O=C1/C(=C/c2ccccc2)C[C@@]2(O)[C@H]3Cc4ccc(O)c5c4[C@@]2(CCN3CC2CC2)[C@H]1O5` [BNTX], the ED50 in the experiment with Mus musculus [14] amounted to 1 nM mouse-1; with Mus musculus [15], 49.8 nM mouse-1; in the experiment with Mus musculus [16], 10.6 nM mouse-1; with Mus musculus [17], 0.9 nM mouse-1.

Consider `N/C(=N\CCCNC(=O)CNC(=O)CNC(=O)CCC(=O)NCC(=O)NCC(=O)Nc1ccc2[nH]c3c(c2c1)C[C@]1(O)C2Cc4ccc(O)c5c4C1(CCN2CC1CC1)[C@@H]3O5)Nc1ccc2[nH]c3c(c2c1)C[C@]1(O)C2Cc4ccc(O)c5c4C1(CCN2CC1CC1)[C@@H]3O5` (some centres undefined), for which the ED50 is 14.5 nM mouse-1 in the experiment on Mus musculus [5], 1.1 nM mouse-1 in the experiment with Mus musculus [8] and 1 nM mouse-1 with Mus musculus [9]. Moreover, the Ki on Opioid receptor [7] was greater than 1000 nM; at Opioid receptor [18], 54.8 nM.

For `O=C(CCC(=O)NCC(=O)NCC(=O)Nc1cccc2c3c([nH]c12)[C@@H]1Oc2c(O)ccc4c2C12CCN(CC1CC1)C(C4)[C@]2(O)C3)NCC(=O)NCC(=O)NCCCNC(=O)c1cccc2c3c([nH]c12)[C@@H]1Oc2c(O)ccc4c2C12CCN(CC1CC1)C(C4)[C@]2(O)C3` (some centres undefined), the results for the Ki at Opioid receptor [19] and at Opioid receptor [18] were greater than 1000 nM and 199 nM, respectively. For the same molecule, the results for the ED50 in the experiment with Mus musculus [14], with Mus musculus [15] and with Mus musculus [16] were 2.4 nM mouse-1, 2.4 nM mouse-1 and 1.1 nM mouse-1, respectively.

Regarding `Oc1ccc2c3c1O[C@H]1c4oc5ccccc5c4C[C@@]4(O)[C@@H](C2)N(CC2CC2)CC[C@]314` [NALTRIBEN], the ED50 in the experiment on Mus musculus [20] is 5.8 nM mouse-1; in the experiment with Mus musculus [21] it was 1 nM mouse-1; with Mus musculus [22], 9.1 nM mouse-1; with Mus musculus [23] it was 0.8 nM mouse-1.

As for `N/C(=N\CCCNC(=O)CNC(=O)CCC(=O)NCC(=O)Nc1cccc2c3c([nH]c12)[C@@H]1Oc2c(O)ccc4c2[C@@]12CCN(CC1CC1)[C@H](C4)[C@]2(O)C3)Nc1ccc2[nH]c3c(c2c1)C[C@@]1(O)[C@H]2Cc4ccc(O)c5c4[C@@]1(CCN2CC1CC1)[C@H]3O5`, the ED50 was 1.9 nM mouse-1 with Mus musculus [24], 2 nM mouse-1 with Mus musculus [25] and 2.5 nM mouse-1 in the experiment with Mus musculus [26]. Further, the Ki turned out to be 6.3 nM on Opioid receptor [6] and 315 nM at Opioid receptor [7].

In the case of `NC(=NCCCCNC(=O)CNC(=O)CNC(=O)CCC(=O)NCC(=O)NCC(=O)Nc1cccc2c3c([nH]c12)[C@@H]1Oc2c(O)ccc4c2C12CCN(CC1CC1)C(C4)[C@]2(O)C3)Nc1ccc2[nH]c3c(c2c1)C[C@@]1(O)C2Cc4ccc(O)c5c4C1(CCN2CC1CC1)[C@H]3O5` (some centres undefined), the ED50 with Mus musculus [11] was determined as 6.3 nM mouse-1; in the experiment on Mus musculus [12] it was 2.2 nM mouse-1; with Mus musculus [13] it was 1.7 nM mouse-1; in the experiment on Mus musculus [27], 0.6 nM mouse-1. The inhibitory constant (Ki) on Opioid receptor [7] came to 1.4 nM; on Opioid receptor [18], 1.1 nM.

In the case of `N/C(=N\CCCCCNC(=O)CNC(=O)CNC(=O)CCC(=O)NCC(=O)NCC(=O)Nc1cccc2c3c([nH]c12)[C@@H]1Oc2c(O)ccc4c2C12CCN(CC1CC1)C(C4)[C@]2(O)C3)Nc1ccc2[nH]c3c(c2c1)C[C@@]1(O)C2Cc4ccc(O)c5c4C1(CCN2CC1CC1)[C@H]3O5` (some centres undefined), the results for the ED50 in the experiment with Mus musculus [11], with Mus musculus [12] and in the experiment with Mus musculus [13] were 2.2 nM mouse-1, 2.1 nM mouse-1 and 4.1 nM mouse-1, respectively. For the same molecule, the Ki is on record as 4.8 nM at Opioid receptor [19] and 3.3 nM on Opioid receptor [18].

As a reminder, the Ki is the dissociation constant of the complex between target and ligand, obtained from inhibition or displacement. A higher Ki goes with a looser hold on the target.
